This note sets out measurements from patent US4433182A, “Insecticidal 2,2'-bridged[1,1'-biphenyl]-3-ylmethyl esters” (FMC Corporation, priority 1981, dated 1984).

Read-outs that look alike come from different tables or passages of the source.

Common to all, as to format: in vivo
The subject of experiment [1] is southern armyworm (Spodoptera eridania). The experiment can be described thus: Topical application to southern armyworm larvae. The following applies: SAW, 24 hours after application. As for the experimental part: (§1) The activity was evaluated in topical application to southern armyworm (Spodoptera eridania), Mexican bean beetle (Epilachna varivestis), large milkweed bug (Oncopeltus fasciatus), cabbage looper (Trichoplusia ni), and tobacco budworm (Heliothis virescens). Two replicates of 10 test larvae per replicate were placed in 9 cm petri dishes, each lined with a piece of filter paper and a food source. On the second or third dorsal thoracic segment of each larva was placed a 1 microliter droplet containing the desired amount of the test compound in acetone. The toxic effect of the compound was determined 24 hours after application. An insect was considered dead if it could no longer right itself and move in an oriented pattern.

Experiment [2] relates to twospotted spider mite (Tetranychus urticae). The experiment can be described thus: Foliar application, twospotted spider mite mortality. The following applies: read-out: Mortality (% killed). As for the experimental part: (§2) The compounds were also tested in foliar applications at various concentrations in aqueous solutions containing 10% acetone and 0.25% emulsifier. The plants (English fava bean for pea aphid and pinto bean for the remaining species) were placed on a revolving turntable in a hood, and the test solutions were applied with a sprayer. The test solutions were applied to the upper and lower surfaces of the plant leaves while the turntable revolved 10 times (5 for upper surface and 5 for lower surface). The total spray time was approximately one minute, and the leaves were covered to runoff. In every case the lowest rate was applied first and the highest rate last. The plants were then allowed to dry. The treated leaves were removed and placed in 240 ml or 480 ml wax treated containers. Ten individuals of the appropriate species were placed in each container and the container capped. Mortality was read 48 hours post-treatment unless otherwise noted. Two replicates of ten individuals were made at each rate. Foliar evaluation used southern armyworm (Spodoptera eridania), Mexican bean beetle (Epilachna varivestis), pea aphid (Acyrthosiphon pisum), and twospotted spider mite (Tetranychus urticae).

The test system of experiment [3] is pea aphid (Acyrthosiphon pisum). The experiment can be described thus: Foliar application, pea aphid mortality. The following applies: read-out: Mortality (% killed). As for the experimental part:
as §2

For experiment [4], the system named is southern armyworm (Spodoptera eridania). The experiment can be described thus: Foliar application, southern armyworm mortality. Particulars: read-out: Mortality (% killed). As for the experimental part: as §2
Experiment [5] concerns large milkweed bug (Oncopeltus fasciatus). The experiment can be described thus: Topical application to large milkweed bug. Particulars: MWB, 24 hours after application. As for the experimental part:
as §1

Experiment [6] relates to Mexican bean beetle (Epilachna varivestis). The experiment can be described thus: Topical application to Mexican bean beetle. Particulars: MBB, 24 hours after application. As to the method: as §1
Experiment [7] deals with tobacco budworm (Heliothis virescens). The experiment can be described thus: Topical application to tobacco budworm. The following applies: TBW, 24 hours after application. As to the method:
as §1

Experiment [8] deals with Mexican bean beetle (Epilachna varivestis). The experiment can be described thus: Foliar application, Mexican bean beetle mortality. The following applies: read-out: Mortality (% killed). As for the experimental part: as §2
Experiment [9] deals with cabbage looper (Trichoplusia ni). The experiment can be described thus: Topical application to cabbage looper. Particulars: CL, 24 hours after application. As to the method:
as §1

Consider `CC1(C)[C@H](C(=O)OCc2cccc3c2CCCc2ccccc2-3)[C@@H]1C=C(Cl)C(F)(F)F` (relative stereo) [Ex. IV (cis), (6,7-dihydro-5H-dibenzo[a,c]cyclohepten-4-yl)methyl cis-3-(2-chloro-3,3,3-trifluoromethyl-1-propenyl)-2,2-dimethylcyclopropanecarboxylate], for which the LD50 in experiment [1] was 54 ng/insect; in experiment [5], 83 ng/insect; in experiment [6] it was 4.26 ng/insect; in experiment [7] it was 212 ng/insect; in [9], 64 ng/insect. The mortality at 2.1 ppm worked out at 4% in experiment [2] (48 h) and 100% in experiment [8] (48 h). In addition, the mortality at 10 ppm in [2] (48 h) was 100%; in experiment [4] (48 h), 75%. For the same compound, the mortality at 0.25 ppm in experiment [3] (48 h) turned out to be 80%.

Regarding `CC1(C)[C@H](C=C(Cl)C(F)(F)F)[C@@H]1C(=O)OCc1cccc2c1CCCCc1ccccc1-2` (relative stereo) [Ex. VII (cis), (5,6,7,8-tetrahydrodibenzo[a,c]cycloocten-4-yl)methyl cis-3-(2-chloro-3,3,3-trifluoropropenyl)-2,2-dimethylcyclopropanecarboxylate], the LD50 stood at 410 ng/insect in [1], 396 ng/insect in [5] and 20.6 ng/insect in experiment [6]. Further, the mortality at 16 ppm in [2] (TSM, foliar, 48 hours) was 24%. Besides, the mortality at 4 ppm turned out to be 0% in experiment [3] (PA, foliar, 48 hours) and 95% in experiment [8] (MBB, foliar, 48 hours).

As for `CC1(C)[C@H](C(=O)OCc2cccc3c2CCCCc2ccccc2-3)[C@@H]1C=C(Cl)Cl` [Ex. VIII (1R,cis), (5,6,7,8-tetrahydrodibenzo[a,c]cycloocten-4-yl)methyl 1R,cis-3-(2,2-dichloroethenyl)-2,2-dimethylcyclopropanecarboxylate], the LD50 in [1] is reported as 201 ng/insect; in experiment [5] it was 460 ng/insect. Moreover, the mortality at 16 ppm in [2] (TSM, foliar, 48 hours) came out at 14%. Moreover, the mortality at 4 ppm in experiment [3] (PA, foliar, 48 hours) came out at 0%; in [8] (MBB, foliar, 48 hours) it was 50%.

As to `CC1(C)[C@H](C=C(Cl)Cl)[C@@H]1C(=O)OCc1cccc2c1CCc1ccccc1-2` (relative stereo) [Ex. I (cis), (9,10-dihydro-1-phenanthryl)methyl cis-3-(2,2-dichloroethenyl)-2,2-dimethylcyclopropanecarboxylate], the LD50 in [1] is on record as 121 ng/insect; in experiment [5] it was 176 ng/insect; in [6], 64 ng/insect; in experiment [7], 193 ng/insect; in experiment [9], 241 ng/insect. Moreover, the mortality at 16 ppm in experiment [3] (PA, foliar, 48 hours) turned out to be 55%; in experiment [4] (SAW, foliar, 48 hours), 10%; in experiment [8] (MBB, foliar, 48 hours) it was 30%. Moreover, the mortality at 32 ppm was 90% in experiment [3] (PA, foliar, 48 hours); 30% in experiment [4] (SAW, foliar, 32 ppm, 48 hours); 35% in experiment [8] (MBB, foliar, 48 hours). In addition, the mortality at 80 ppm worked out at 80% in experiment [4] (SAW, foliar, 80 ppm, 48 hours) and 75% in [8] (MBB, foliar, 80 ppm, 48 hours).

On to `CC1(C)[C@H](C=C(Cl)Cl)[C@@H]1C(=O)OCc1cccc(-c2ccccc2)c1` (relative stereo) [Ref., [(1,1biphenyl)-3-yl]methyl cis3-(2,2-dichloroethenyl)-2,2-dimethylcyclopropanecarboxylate, reference compound], for which the LD50 in experiment [1] was 27 ng/insect; in [5] it was 620 ng/insect; in experiment [6] it was 18 ng/insect; in [7], 2330 ng/insect; in experiment [9] it was 560 ng/insect. The mortality at 500 ppm in experiment [2] (TSM, foliar, 500 ppm, 48 hours) is 33%. Also, the mortality at 32 ppm came out at 70% in experiment [3] (PA, foliar, 48 hours) and 50% in experiment [8] (MBB, foliar, 48 hours). The mortality at 4 ppm in experiment [4] (SAW, foliar, 48 hours) amounted to 90%.

For the compound `CC1(C)[C@H](C(=O)OCc2cccc3c2Cc2ccccc2-3)[C@@H]1C=C(Cl)C(F)(F)F` (relative stereo) [Ex. VI (cis), 9H-fluorene-1-methyl cis-3-(2-chloro-3,3,3-trifluoromethyl-1-propenyl)-2,2-dimethylcyclopropanecarboxylate], the results for the LD50 in [1] and in [6] were 1160 ng/insect and 762 ng/insect, respectively. The mortality at 500 ppm in [2] (48 h) is 0%; in experiment [3] (48 h) it was 90%; in experiment [4] (48 h), 100%. Besides, the mortality at 64 ppm in experiment [3] (48 h) came to 50%; in [4] (48 h), 95%; in experiment [8] (48 h), 0%.

For the compound `CC1(C)[C@H](C(=O)OCc2cccc3c2Cc2ccccc2-3)[C@@H]1C=C(Cl)Cl` (relative stereo) [Ex. V (cis), 9H-fluorene-1-methyl cis-3-(2,2-dichloroethenyl)-2,2-dimethylcyclopropanecarboxylate], the LD50 in experiment [1] is 460 ng/insect; in experiment [6], 3320 ng/insect. The mortality at 500 ppm in [2] (48 h) is 0%; in experiment [3] (48 h), 90%; in experiment [4] (48 h) it was 100%. The mortality at 64 ppm amounted to 30% in experiment [3] (48 h), 0% in experiment [4] (48 h) and 0% in experiment [8] (48 h).

`CC1(C)[C@H](C=C(Cl)Cl)[C@@H]1C(=O)OCc1cccc2c1CCCc1ccccc1-2` (relative stereo) [Ex. III (cis), (6,7-dihydro-5H-dibenzo[a,c]cyclohepten-4-yl)methyl cis-3-(2,2-dichloroethenyl)-2,2-dimethylcyclopropanecarboxylate]: the LD50 stood at 96 ng/insect in [1]; 104 ng/insect in [5]; 11 ng/insect in [6]; 375 ng/insect in experiment [7]; 62 ng/insect in experiment [9]. In addition, the mortality at 10 ppm in [2] (TSM, foliar, 10 ppm, 48 hours) stood at 13%; in experiment [3] (PA, foliar, 10 ppm, 48 hours), 90%; in experiment [4] (SAW, foliar, 10 ppm, 48 hours) it was 40%; in experiment [8] (MBB, foliar, 10 ppm, 48 hours) it was 85%. Besides, the mortality at 4.5 ppm was found to be 55% in [3] (PA, foliar, 4.5 ppm, 48 hours); 5% in experiment [4] (SAW, foliar, 4.5 ppm, 48 hours); 55% in experiment [8] (MBB, foliar, 4.5 ppm, 48 hours).

In the case of `CC1(C)[C@@H](C=C(Cl)Cl)[C@@H]1C(=O)OCc1cccc2c1Cc1ccccc1-2` (relative stereo) [Ex. V (trans), 9H-fluorene-1-methyl trans-3-(2,2-dichloroethenyl)-2,2-dimethylcyclopropanecarboxylate], the values for the mortality at 500 ppm in [2] (48 h), in experiment [3] (48 h) and in experiment [4] (48 h) were 0%, 0% and 25%, respectively. The mortality at 64 ppm in experiment [3] (48 h) came out at 20%; in experiment [4] (48 h), 0%; in [8] (48 h), 15%.

On to `CC1(C)[C@@H](C=C(Cl)Cl)[C@@H]1C(=O)OCc1cccc2c1CCCc1ccccc1-2` (relative stereo) [Ex. III (trans), (6,7-dihydro-5H-dibenzo[a,c]cyclohepten-4-yl)methyl trans-3-(2,2-dichloroethenyl)-2,2-dimethylcyclopropanecarboxylate], for which the LD50 is reported as 95 ng/insect in experiment [1]; 315 ng/insect in [5]; 50 ng/insect in experiment [6]; 355 ng/insect in [7]; 92 ng/insect in experiment [9]. The mortality at 4 ppm in [3] (PA, foliar, 48 hours) is 80%; in experiment [4] (SAW, foliar, 48 hours), 10%; in experiment [8] (MBB, foliar, 48 hours), 20%. Moreover, the mortality at 16 ppm in [3] (PA, foliar, 48 hours) came out at 90%; in experiment [4] (SAW, foliar, 48 hours) it was 100%; in [8] (MBB, foliar, 48 hours), 55%.

What is called mortality is the share of the test organisms that died.
